This is an account of results in US9274109B2, “Gut flora-derived extracellular vesicles, and method for searching for a disease model, vaccine, and candidate drug and for diagnosis using the same” (AEON MEDIX INC., priority 2009, dated 2016).

Structures can show the parent of a compound that is named as a salt. Where two headings read alike, the source gives them in different places. Some results are limits rather than exact numbers.

Assay [1] deals with mouse macrophages (RAW 264.7). The experiment in a line: In vitro screening: extracellular vesicle-induced IL-6 secretion from macrophages. The format is cell-based. To be noted: for activity at 10 µM: Mus musculus, RAW 264.7, vesicles 100 ng/ml.
The test system of assay [2] is mouse peritoneal macrophages. The experiment in a line: Ex vivo IL-6 release from mouse peritoneal macrophages with E. coli-derived extracellular vesicles. Conditions: 10 μM prodrug. The format is cell-based. The protocol: FIG. 41 is a graph showing IL-6 levels obtained by treating mouse peritoneal macrophages with 10 μM prodrugs in the presence of E. coli-derived extracellular vesicles (EC_EV)

Assay [3] relates to mouse macrophages (RAW 264.7). Kind of assay: In vitro screening: extracellular vesicle-induced IL-6 secretion from macrophages. Conditions: RAW264.7, 15 h, read-out: level of IL-6 as percentage of the positive control (kinase inhibitors). The class given is cell-based. The protocol: FIG. 35 is a schematic diagram showing the discovery of substances inhibitory of the gut flora-derived extracellular vesicles-induced release of IL-6. The mouse macrophages (RAW 264.7) were treated for 15 hours with the gut flora-derived extracellular vesicles (100 ng/ml) alone, separated by the method of Example 3, or in combination with a drug candidate (10 μM), in a 37° C. incubator. The culture media was collected and centrifuged at 4° C., 500×g for 10 min and then at 4° C., 3000×g for 20 min. IL-6 in the supernatant was quantitatively analyzed by ELISA. These processes account, at least in part, for a method for in vitro screening drug candidates inhibitory of the gut flora-derived extracellular vesicle-induced secretion of IL-6, by which drug candidates preventive or therapeutic of gut flora-derived extracellular vesicles-caused diseases can be provided.
According to the method established in Example 12, mouse macrophages (RAW 264.7) were treated with neither extracellular vesicles nor any drug candidate (negative control), with E. coli-derived extracellular vesicles (0.1 μg/ml) alone (positive control) or with the extracellular vesicles (0.1 μg/ml) in combination with 10 μM of one selected from among 80 different kinase inhibitors ((kinase inhibitor library, BIOMOL No. 2832: PD-98059, U-0126, SB-203580, H-7, H-9, AG-494, AG-825, Lavendustin A, RG-14620, Tytphostin 23, Tytphostin 25, Tytphostin 46, Tytphostin 47, Tytphostin 51, Tytphostin 1, Tytphostin 9, Tytphostin AG 1288, Tytphostin AG 1478, Tytphostin AG 1295, HNMPA, Damnacanthal, Piceatannol, AG-490, AG-126, AG-370, AG-879, LY 294002, Wortmannin, GF 109203X, Hypericin, Sphingosine, H-89, H-8, HA-1004, HA-1077, HDBA, KN-62, KN-93, ML-7, ML-9, 2-Aminopurine, N9-Isopropyl-olomoucine, Olomoucine, iso-olomoucine, Roscovitine, LFM-A13, SB-202190, ZM 336372, SU 4312, AG-1296, Rottlerin, Genistein, Daiazein, Erbstatin analog, Quercetin dehydrate, SU 1498, ZM 449829, DRB (5,6-Dichloro-1-b-D-ribofuranosylbenzimidazole), HBDDE (2,2′,3,3′,4,4′-Hexahydroxy-1,1′-biphenyl-6,6′-dimethanol dimethyl ether), Indirubin, Indirubin-3′-monoxime, Y-27632, Kenpaullone, Terreic acid, BML-257, BML-259, Apigenin, BML-265 (Erlotinib analog), Rapamycin). After 15 hours of treatment, IL-6 was quantitatively analyzed by ELISA.

The subject of assay [4] is C57BL/6 mice. The experiment in a line: In vivo serum IL-6 in extracellular vesicle-induced sepsis mouse model. Conditions: 10 mg/kg i.p.; vesicles 5 μg i.p.; 6 hours; ELISA. The method, then: In vivo assay was performed to examine whether the prodrugs discovered in Example 15 exert anti-inflammatory effects in the body. To this end, the sepsis mouse models that were established by the intraperitoneal injection of 5 μg of E. coli-derived extracellular vesicles into C57BL/6 mice (male, 6 weeks old, 4 mice in each group) as in Example 6 was intraperitoneally injected with Haloperidol and Doxepein at a dose of 10 mg/kg, each. Sera were taken 6 hours later.

Assay [5] deals with mouse macrophages (RAW 264.7). The experiment in a line: IL-6 secretion from macrophages treated with extracellular vesicles from small intestinal fluid. Conditions: RAW 264.7, ELISA, versus vesicles alone. The format is cell-based. The source says:
Extracellular vesicles were separated from small intestinal fluids of normal mice and DSS-induced mouse model of […]. To this end, mice were operated on to excise the small intestine. The peyer's patch and liquid were removed from the excised small intestine which was then cut at regular lengths of about 5 cm. The intestinal pieces were transversely cut and washed with physiological saline to remove impurities therefrom. They were again cut into pieces with dimensions of 1 cm×1 cm and vortexed five times for five sec per time in 30 mL of physiological saline. After the removal of intestinal tissues and impurities by centrifugation, the supernatant was ultra-centrifuged to separate extracellular vesicles.
FIGS. 3 and 4 show the secretion of the inflammatory cytokine IL-6 in mouse macrophages (RAW 264.7) treated with various concentrations of the extracellular vesicles separated from the small intestinal fluids of normal mice and DSS-induced mouse models of IBD.
FIG. 5 provides the results after an experiment was done to see whether the exracellular vesicles from the DSS-induced mouse model of IBD contained those derived from Gram-negative bacteria.
On the technique in general: In an ELISA, binding on a coated surface is turned into a signal by an enzyme label.

Where [6] appears, read: RAW264.7, 15 h, read-out: IL-6 level as percentage of the positive control (prodrugs).

As for `COc1ccc(CCN(C)CCCC(C#N)(c2ccc(OC)c(OC)c2)C(C)C)cc1OC` (centres unmarked) [Verapamil], the activity at 10 µM in assay [1] (setting [6]) is less than 80%.
`CN(C)CCC=C1c2ccccc2CCc2ccccc21` [Amitriptyline]: the activity at 10 µM in assay [1] (setting [6]) is less than 80%. The “IL-6 release from mouse peritoneal macrophages” value (from here on “IL-6 release”) in assay [2] is “inhibitory effect”.
On to `Cc1c(Cl)cccc1Nc1ccccc1C(=O)O` [Tolfenamic acid], for which, in assay [1] (setting [6]), the activity at 10 µM was less than 80%. In addition, the “IL-6 release” value in assay [2] was “inhibitory effect”.
In the case of `C=CC(=O)c1ccc2ccccc2c1` [ZM449829, 1-(2-Naphthalenyl)-2-propen-1-one], the activity at 10 µM in assay [3] was less than 50%.
On to `OC[C@H]1O[C@H](n2cnc3cc(Cl)c(Cl)cc32)[C@@H](O)[C@H]1O` [DRB, (2S,3S,4R,5R)-2-(5,6-dichlorobenzimidazol-1-yl)-5-(hydroxymethyl)oxolane-3,4-diol], for which the activity at 10 µM in assay [3] was less than 50%.
Turning to `CN(C)CCCN1c2ccccc2CCc2ccccc21` [Imipramine], in assay [1] (setting [6]), the activity at 10 µM is less than 80%. The “IL-6 release” value in assay [2] was “inhibitory effect”.
As to `O=C1N=c2ccccc2=C1c1[nH]c2ccccc2c1NO` [Indirubin-3′monoxime, 3-[3-(hydroxyamino)-1H-indol-2-yl]indol-2-one], in assay [3], the activity at 10 µM was less than 50%.
With `O=C(CCCN1CCC(O)(c2ccc(Cl)cc2)CC1)c1ccc(F)cc1` [Haloperidol], the “serum IL-6 level” value in assay [4] was “effectively suppressed”. The activity at 10 µM in assay [1] (setting [6]) is less than 80%. Also, the “IL-6 release” value in assay [2] is listed as “inhibitory effect”.
`CN(C)CCC=C1c2ccccc2C=Cc2ccccc21` [Cyclobenzaprine]: in assay [1] (setting [6]), the activity at 10 µM is less than 80%. Also, the “IL-6 release” value in assay [2] is given as “inhibitory effect”.
In the case of `CN(C)CCCn1cc(C2=C(c3c[nH]c4ccccc34)C(=O)NC2=O)c2ccccc21` [GF109203X, 3-[1-[3-(dimethylamino)propyl]indol-3-yl]-4-(1H-indol-3-yl)pyrrole-2,5-dione], the activity at 10 µM in assay [3] is less than 50%.
Turning to `CC1CNCCN1S(=O)(=O)c1cccc2cnccc12` (centres unmarked) [H-7, 5-(2-methylpiperazin-1-yl)sulfonylisoquinoline dihydrochloride], in assay [3], the activity at 10 µM is less than 50%.
In the case of `O=S(=O)(c1cccc2c(I)cccc12)N1CCCNCC1` [ML-7, 1-(5-iodonaphthalen-1-yl)sulfonyl-1,4-diazepane hydrochloride], the activity at 10 µM in assay [3] is less than 50%.
For `CC(C)(C)c1ccc(C(O)CCCN2CCC(C(O)(c3ccccc3)c3ccccc3)CC2)cc1` (centres unmarked) [Terfenadine], the activity at 10 µM in assay [1] (setting [6]) is less than 80%. For the same molecule, the “IL-6 release” value in assay [2] was “inhibitory effect”.
Consider `CNCCCC12CCC(c3ccccc31)c1ccccc12` [Maprotiline], for which, in assay [1] (setting [6]), the activity at 10 µM is less than 80%. For the same molecule, the “IL-6 release” value in assay [2] is listed as “inhibitory effect”.
With `O=C1Cc2c([nH]c3ccc(Br)cc23)-c2ccccc2N1` [Kenpaullone, 9-bromo-7,12-dihydro-5H-indolo[3,2-d][1]benzazepin-6-one], the activity at 10 µM in assay [3] was less than 50%.
As to `CN(C)CCC=C1c2ccccc2COc2ccccc21` [Doxepin], in assay [4], the “serum IL-6 level” value is reported as “effectively suppressed”. Further, in assay [1] (setting [6]), the activity at 10 µM was less than 80%. In addition, the “IL-6 release” value in assay [2] is given as “inhibitory effect”.
`O=c1cc(-c2ccc(O)cc2)oc2cc(O)cc(O)c12` [Apigenin, 5,7-dihydroxy-2-(4-hydroxyphenyl)chromen-4-one]: in assay [3], the activity at 10 µM was less than 50%.
Same read-out and setting: as for `O=c1cc(N2CCOCC2)oc2c(-c3ccccc3)cccc12` [LY294002, 2-morpholin-4-yl-8-phenylchromen-4-one], the figure is less than 50%.
Regarding `O=c1n(CCCN2CCN(c3cccc(Cl)c3)CC2)nc2ccccn12` [Trazodone], the activity at 10 µM in assay [1] (setting [6]) is less than 80%. For the same molecule, the “IL-6 release” value in assay [2] is “inhibitory effect”.
The corresponding values for `CNCCCN1c2ccccc2CCc2ccccc21` [Desipramine] are less than 80% and “inhibitory effect”.
Regarding `Cc1ccccc1C(OCCN(C)C)c1ccccc1` (centres unmarked) [Orphenadrine], the activity at 10 µM in assay [1] (setting [6]) was less than 80%. In addition, the “IL-6 release” value in assay [2] is given as “inhibitory effect”.
On to `Cl.Cl.OCCN1CCN(CCCN2c3ccccc3Sc3ccc(C(F)(F)F)cc32)CC1` [Fluphenazine dichloride], for which the “IL-6 release” value in assay [2] is reported as “inhibitory effect”.
Take `COc1ccc2c(c1)c(OC(C)C)c(C(N)=O)[s+]2[O-]` (centres unmarked) [PD-144795, 5-methoxy-3-(1-methylethoxy)benzo(b)thiophene-2-carboxamide-1-oxide]: the “IL-6 secretion at graded concentrations” value in assay [1] (0.1, 1, 5, 10 μM, vesicles 100 ng/ml) is reported as “inhibits IL-6 secretion in a dose-dependent manner”. Besides, the activity at 10 µM in assay [1] (RAW264.7, 10 μM, read-out: IL-6 level as percentage of the positive control (phosphatase inhibitors)) is less than 50%.
For the molecule `CC(C)c1cnc(NC(=O)Cc2ccccc2)s1` [BML-259, N-(5-Isopropylthiazol-2-yl)phenylacetamide], in assay [3], the activity at 10 µM was less than 50%.
With polymyxin B, the “secretion of IL-6 induced by extracellular vesicles from DSS-induced IBD mice, in combination with polymyxin B” value in assay [5] is reported as “decreased”.
Take `O=S(=O)(c1cccc2c(Cl)cccc12)N1CCCNCC1` [ML-9, 1-(5-chloronaphthalen-1-yl)sulfonyl-1,4-diazepane hydrochloride]: in assay [3], the activity at 10 µM was less than 50%.
For the molecule `NS(=O)(=O)c1cc2c(cc1Cl)NC(C(Cl)Cl)NS2(=O)=O` (centres unmarked) [Trichlormethiazide], the activity at 10 µM in assay [1] (setting [6]) is less than 80%.
